Measured values as given in patent US20230024108A1, “ADENOSINE A2A RECEPTOR ANTAGONISTS” (Teon Therapeutics, Inc., priority 2019, published 2023).

Assays:
phospho-CREB (pCREB) = assay: Human whole blood phospho-CREB (pCREB) assay / modulation of pCREB in human immune cells; assay type: cell-based; conditions: agonist (NECA or CGS-21680)-stimulated human blood cells
Experimental: Fresh human blood samples are derived from healthy volunteers and processed in heparin tubes. 67.5 ul of whole blood is aliquoted to each well in a 96-well plate and incubated at 37° C. for 30 min. Testing compounds are diluted with DMSO to make 8-point 3-fold serial dilution and 3.5 ul (20×) is added to each well. Cells are incubated with the compounds at 37° C. for 30 min. NECA (5 uM) is then added to each well and cells are incubated for 30 min at 37° C. Following the stimulation, cells are transferred to a 96-well deep well plates and fixed with 1 ml/well of lyse/fix buffer (1×) (BD Biosciences #558049) with vigorous shake at 37° C. for 10 min. Cells are centrifuged at 600 g for 6 min and washed twice with PBS, followed by addition of 800 ul/well Perm buffer III (BD Biosciences #558050). Cells are then pelleted at 600 g for 6 min, washed with FACS buffer (PBS+0.2% BSA+1 mM EDTA) and stained for 40 min at room temperature in the dark with an antibody cocktail containing PE mouse anti-human CD3 (BD Biosciences #555333, 1 ul/well), FITC mouse anti-human CD4 (BD Biosciences #5555346, 1 ul/well), PerCP-Cy™5.5 mouse anti-human CD8 (BD Biosciences #565310, 1 ul/well) and phospho-CREB (Ser133) (87G3) Rabbit mAb (Alexa Fluor® 647 Conjugate, CST #14001, 0.5 ul/well). Cells are then washed twice with FACS buffer and acquired on a flow cytometer (Sony Cell Sorter SH800). Data were analyzed using FlowJo version 9. The level of CREB phosphorylation from unstimulated cells (Low control: LC) and NECA-stimulated cells (High control: HC) are determined as mean fluorescent intensity (MFI) in stimulated condition/mean fluorescent intensity in unstimulated condition. % Inhibition is calculated as (MFI of HC-MFI of assay well)/(MFI of HC-MFI of LC)×100%. Data are analyzed and IC50s calculated using GraphPad Prism 5 and the model “log(inhibitor) vs. response—Variable slope”.
The A2A receptor is known to mediate CREB phosphorylation.
Venous blood from healthy volunteers, all of whom signed an informed consent approved by the Ethics Committee (FOR—UIC-BV-050-01-01 ICF HBS HD Version 5.0), was obtained via ImmuneHealth (Centre Hospitalier Universitaire Tivoli, La Louviere,
15 Belgium). Peripheral blood cells were treated with A2AR agonists CGS-21680 or NECA (Sigma-Aldrich, Diegem, Belgium), and a serial dilution of compounds disclosed herein (all used stock solutions at 10 mM in DMSO). All dilutions were prepared in RPMI1640 medium (with UltraGlutamine; Lonza, Venders, Belgium), and cells were incubated with compounds in a 37° C. humidified tissue culture incubator with 5% CO2.
After stimulation, cells were fixed and permeabilized, followed by intracellular staining using mouse anti-human pCREB antibodies (Clone J151-21; BD Biosciences) at room temperature. Data were acquired using an LSRFortessa flow cytometer (BD Biosciences) and analyzed using FlowJo software (FlowJo, LLC, Ashland, Oregon).

A1AdoR = biological target: T1, A1AdoR (Homo sapiens, UniProt P30542); assay: Adenosine receptor binding assay, A1 ([3H]-DPCPX); conditions: ratio A1 vs A2A binding
T1 construct: purchased PerkinElmer ES-010-M400UA
T1 sequence (P30542 1-326): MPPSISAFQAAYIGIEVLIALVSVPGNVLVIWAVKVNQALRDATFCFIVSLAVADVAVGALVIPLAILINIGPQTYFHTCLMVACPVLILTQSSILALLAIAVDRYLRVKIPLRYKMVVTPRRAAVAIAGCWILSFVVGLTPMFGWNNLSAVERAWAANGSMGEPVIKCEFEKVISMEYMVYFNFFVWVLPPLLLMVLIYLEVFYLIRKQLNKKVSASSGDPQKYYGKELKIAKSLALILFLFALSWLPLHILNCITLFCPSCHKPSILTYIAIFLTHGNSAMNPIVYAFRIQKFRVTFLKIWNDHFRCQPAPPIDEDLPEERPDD
Summary of the method: (§1)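 Filtration binding on membranes: A2A in HEK-293 with 6 nM [3H]-CGS-21680, Tris pH 7.4, 2 h; A2B in HEK-293 with 8 nM [3H]-DPCPX, HEPES pH 7.0, 1 h; A1 in CHO-K1 with 1 nM [3H]-DPCPX, HEPES pH 7.4, 1 h; room temperature. 8-point dilutions; IC50 converted to Ki (Cheng–Prusoff).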

human A2B AdoR = biological target: T2, human A2B AdoR (Homo sapiens, UniProt P29275); assay: Adenosine receptor binding assay, A2B ([3H]-DPCPX); conditions: ratio A2B vs A2A binding
T2 construct: purchased PerkinElmer ES-013-M400UA
T2 sequence (P29275 1-332): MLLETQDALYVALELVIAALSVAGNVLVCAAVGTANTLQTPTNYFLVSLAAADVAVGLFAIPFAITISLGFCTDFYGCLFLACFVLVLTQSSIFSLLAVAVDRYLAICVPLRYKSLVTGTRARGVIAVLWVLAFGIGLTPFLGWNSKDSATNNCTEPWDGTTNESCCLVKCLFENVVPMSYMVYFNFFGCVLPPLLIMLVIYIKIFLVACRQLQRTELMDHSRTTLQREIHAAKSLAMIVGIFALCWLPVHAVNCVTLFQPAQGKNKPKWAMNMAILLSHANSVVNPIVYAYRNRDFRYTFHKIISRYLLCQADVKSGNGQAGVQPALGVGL
Experimental: Membranes prepared from CHO-K1 cells stably expressing Human AiAdoR (ES-010-M400UA), HEK-293 cells stably expressing human A2A AdoR (RBHA2AM400UA), HEK-293 cells stably expressing human A2B AdoR (ES-013-M400UA) and CHO-K1 cells stably expressing Human A3 AdoR (ES-012-M400UA) were purchased from PerkinElmer (Waltham, Mass., USA) and stored at −80° C. until use. Binding assays are performed using the radioligands. The final concentrations are as follows: [3H]-DPCPX (PerkinElmer, NET974001MC) at 1 nM for A1AdoR; [^3H]-CGS-21680 (PerkinElmer, NET1021250UC) at 6 nM for A2AAdoR, [3H]-DPCPX (PerkinElmer, NET974001MC) at 8 nM for A2BAdoR; [^3H]-HEMADO (ARC, Cat: ART1456) at 1 nM for A3AdoR. Testing compounds are diluted with DMSO to make 8-point 4-fold serial dilution. Nonspecific binding (Low control: LC) and total binding (High control: HC) are determined in the presence or absence of saturated cold ligand. Specific binding is calculated by subtracting nonspecific binding from total binding. All assays are performed in a final volume of 200 μl containing 1 μl of the test compound in DMSO, 100 μl of membrane preparation, and 99 μl of the radioligand in assay buffer (A1AdoR: 25 mM HEPES pH 7.4, 5 mM MgCl2, 1 mM CaCl2), 100 mM NaCl; A2AAdoR: 50 mM Tris HCl pH 7.4, 10 mM MgCl2, 1 mM EDTA; A2BAdoR: 50 mM HEPES pH 7.0, 5 mM MgCl2, 1 mM EDTA; A3AdoR: 25 HEPES pH 7.4, 10 mM MgCl2, 1 mM CaCl2), 0.5% BSA). The incubation is performed at room temperature with shaking at 300 rpm for 1 hour for A1AdoR, A2BAdoR and A3AdoR and 2 hours for A2AAdoR. After the incubation, the assay mixture is filtered through 96 GF/C filter plates (Perkin Elmer #6005174) using Perkin Elmer Filtermate Harvester, and then washed four times with ice-cold washing buffer (A1AdoR: 25 mM HEPES pH 7.4, 5 mM MgCl2, 1 mM CaCl2), 100 mM NaCl; A2AAdoR: 50 mM Tris HCl pH 7.4, 154 mM NaCl; A2BAdoR: 50 mM HEPES pH 6.5, 5 mM MgCl2, 1 mM EDTA, 0.2% BSA; A3AdoR: 50 mM Tris HCl pH 7.4). The filters are dried for 1 hour at 50° C. and [^3H] trapped on filter counted for radioactivity in Perkin Elmer Microscint 20 cocktail (#6013329) using Perkin Elmer MicroBeta2 Reader. The results are expressed as a percent inhibition of the control radioligand specific binding calculated using the following equation: % Inhibition=(1−(Assay well-Average_LC)/(Average_HC−Average_LC))×100%. Data are analyzed and IC50 is calculated using GraphPad Prism 5 and the model “log(inhibitor) vs. response—Variable slope”. The binding affinity of the compounds is determined by using the Cheng and Prusoff equation Ki=IC50/(1+[radioligand]/Kd).

human A2A AdoR = biological target: T3, human A2A AdoR (Homo sapiens, UniProt P29274); assay: Adenosine receptor binding assay, A2A ([3H]-CGS-21680); conditions: membranes of HEK-293 cells expressing human A2A AdoR; read-out: hA2A IC50
T3 construct: purchased PerkinElmer RBHA2AM400UA
T3 sequence (P29274 whole entry): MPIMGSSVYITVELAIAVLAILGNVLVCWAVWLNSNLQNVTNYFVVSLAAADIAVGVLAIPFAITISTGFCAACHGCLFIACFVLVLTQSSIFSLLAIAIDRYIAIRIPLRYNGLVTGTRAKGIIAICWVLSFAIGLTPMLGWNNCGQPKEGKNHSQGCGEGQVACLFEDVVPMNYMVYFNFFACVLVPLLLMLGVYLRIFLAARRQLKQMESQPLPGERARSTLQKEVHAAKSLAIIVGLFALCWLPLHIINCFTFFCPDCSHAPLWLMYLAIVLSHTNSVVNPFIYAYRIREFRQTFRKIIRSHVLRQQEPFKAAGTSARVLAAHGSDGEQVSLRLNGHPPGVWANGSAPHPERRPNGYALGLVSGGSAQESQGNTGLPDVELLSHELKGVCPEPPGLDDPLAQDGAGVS
Summary of the method: as §1

SMILES | EC50 (phospho-CREB (pCREB)) [nM] | A1/A2A Selectivity (A1AdoR) | A2B/A2A Selectivity (human A2B AdoR) | IC50 (human A2A AdoR) [nM]
NC(=O)c1cc2c(nc(N)n3nc(-c4ccccn4)nc23)n1CCN1CCN(c2ccc(OCC(=O)O)cc2)CC1 | 20 to 100 | b (greater than 100 but less than or equal to 1000) | a (greater than 1000) | ≤ 20
CC#Cc1nc2c3cc(C#N)n(CCN4CCN(c5cc(-c6ncco6)ccc5F)CC4)c3nc(N)n2n1 | > 100 | a (greater than 1000) | a (greater than 1000) | ≤ 20
Cc1c(C(=O)O)n(CCN2CCN(c3cc(-c4ncco4)ccc3F)CC2)c2nc(N)n3nc(-c4ccccn4)nc3c12 | ≤ 20 | a (greater than 1000) | a (greater than 1000) | ≤ 20
Cc1c(C(=O)NC2CC2)n(CCN2CCN(c3cc(-c4ncco4)ccc3F)CC2)c2nc(N)n3nc(-c4ccccn4)nc3c12 | > 100 | a (greater than 1000) | a (greater than 1000) | ≤ 20
NC(=O)c1cc2c(nc(N)n3nc(-c4ccccn4)nc23)n1CCN1CCN(c2cc(-c3ncco3)ccc2F)CC1 | 20 to 100 | b (greater than 100 but less than or equal to 1000) | a (greater than 1000) | ≤ 20
COCCOc1ccc(N2CCN(CCn3c(C(N)=O)cc4c3nc(N)n3nc(-c5ccccn5)nc43)CC2)cc1 | > 100 | c (greater than 0 but less than or equal to 100) | a (greater than 1000) | ≤ 20
COCCOc1ccc(N2CCN(CCn3c(C#N)cc4c3nc(N)n3nc(-c5ccccn5)nc43)CC2)cc1 | > 100 | b (greater than 100 but less than or equal to 1000) | a (greater than 1000) | ≤ 20
CC#Cc1nc2c3cc(C#N)n(CCN4CCN(c5ccc(OCCOC)cc5)CC4)c3nc(N)n2n1 | > 100 | a (greater than 1000) | a (greater than 1000) | ≤ 20
Cc1noc2cc(F)c(N3CCN(CCn4c(C#N)c(Cl)c5c4nc(N)n4nc(-c6ccccn6)nc54)CC3)cc12 | 20 to 100 | a (greater than 1000) | a (greater than 1000) | ≤ 20
Nc1nc2c(c(Cl)nn2CCN2CCN(c3cc(-c4ncco4)ccc3F)CC2)c2nc(-c3ccccn3)nn12 | 20 to 100 | c (greater than 0 but less than or equal to 100) | a (greater than 1000) | ≤ 20
Cc1noc2cc(F)c(N3CCN(CCn4nc(Cl)c5c4nc(N)n4nc(-c6ccccn6)nc54)CC3)cc12 | ≤ 20 | b (greater than 100 but less than or equal to 1000) | a (greater than 1000) | ≤ 20
Nc1nc2c(cc(C(=O)O)n2CCN2CCN(c3cc(-c4ncco4)ccc3F)CC2)c2nc(-c3ccccn3)nn12 [5-amino-7-(2-(4-(2-fluoro-5-(oxazol-2-yl)phenyl)piperazin-1-yl)ethyl)-2-(pyridin-2-yl)-7H-pyrrolo[3,2-e][1,2,4]triazolo[1,5-c]pyrimidine-8-carboxylic acid] | > 100 | b (greater than 100 but less than or equal to 1000) | a (greater than 1000) | ≤ 20
